Patent publication EP4644396A1 (Visionpharma (Nantong) Co., Ltd, priority 2022, dated 2024)
Where two headings read alike, the source gives them in different places.

How the values were obtained:
[1] = target: T1, human TLR8 (Homo sapiens, UniProt Q9NR97); assay: HEK-Blue hTLR8 SEAP reporter gene inhibition assay; assay type: cell-based
T1 construct: expressed in transfected cells
T1 sequence (Q9NR97 27-1041): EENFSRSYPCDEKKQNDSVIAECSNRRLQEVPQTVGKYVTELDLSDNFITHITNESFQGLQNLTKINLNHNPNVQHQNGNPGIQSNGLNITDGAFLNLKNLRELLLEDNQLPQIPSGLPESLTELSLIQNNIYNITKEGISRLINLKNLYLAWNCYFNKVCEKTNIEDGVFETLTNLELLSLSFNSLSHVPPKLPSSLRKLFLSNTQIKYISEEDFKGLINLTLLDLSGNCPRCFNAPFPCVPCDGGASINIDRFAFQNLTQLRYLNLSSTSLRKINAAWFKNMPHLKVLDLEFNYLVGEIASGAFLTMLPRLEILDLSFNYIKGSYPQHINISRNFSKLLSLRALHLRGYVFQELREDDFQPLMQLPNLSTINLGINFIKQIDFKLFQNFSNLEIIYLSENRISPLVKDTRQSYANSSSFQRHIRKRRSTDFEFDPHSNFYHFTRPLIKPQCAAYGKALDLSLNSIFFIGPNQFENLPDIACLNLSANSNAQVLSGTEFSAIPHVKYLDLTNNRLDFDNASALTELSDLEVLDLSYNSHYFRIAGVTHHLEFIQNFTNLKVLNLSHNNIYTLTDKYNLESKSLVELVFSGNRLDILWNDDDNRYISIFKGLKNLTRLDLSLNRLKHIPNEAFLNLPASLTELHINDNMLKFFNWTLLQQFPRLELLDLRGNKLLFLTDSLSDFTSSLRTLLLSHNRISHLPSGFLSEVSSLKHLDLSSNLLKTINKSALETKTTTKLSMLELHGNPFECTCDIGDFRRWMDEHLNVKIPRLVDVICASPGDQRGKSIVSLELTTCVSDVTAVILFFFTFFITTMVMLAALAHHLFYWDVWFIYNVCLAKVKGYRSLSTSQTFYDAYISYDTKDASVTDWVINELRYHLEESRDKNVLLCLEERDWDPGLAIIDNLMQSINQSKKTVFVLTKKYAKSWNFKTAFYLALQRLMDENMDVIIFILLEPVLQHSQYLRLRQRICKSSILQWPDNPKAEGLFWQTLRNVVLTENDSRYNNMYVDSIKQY
Procedure, shortened: (§1)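 HEK-Blue cells stably expressing human TLR7 (80,000/well) or TLR8 (60,000/well) with NF-κB/AP-1–driven SEAP reporter; compounds 0.001–36 µM preincubated 15 min, then 10 µM ligand (Gardiquimod for TLR7) added for 20 h. SEAP measured by Quanti-Blue; IC50 calculated.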

[2] = target: T2, human TLR7 (Homo sapiens, UniProt Q9NYK1); assay: HEK-Blue hTLR7 SEAP reporter gene inhibition assay; assay type: cell-based
T2 sequence (Q9NYK1 27-1049): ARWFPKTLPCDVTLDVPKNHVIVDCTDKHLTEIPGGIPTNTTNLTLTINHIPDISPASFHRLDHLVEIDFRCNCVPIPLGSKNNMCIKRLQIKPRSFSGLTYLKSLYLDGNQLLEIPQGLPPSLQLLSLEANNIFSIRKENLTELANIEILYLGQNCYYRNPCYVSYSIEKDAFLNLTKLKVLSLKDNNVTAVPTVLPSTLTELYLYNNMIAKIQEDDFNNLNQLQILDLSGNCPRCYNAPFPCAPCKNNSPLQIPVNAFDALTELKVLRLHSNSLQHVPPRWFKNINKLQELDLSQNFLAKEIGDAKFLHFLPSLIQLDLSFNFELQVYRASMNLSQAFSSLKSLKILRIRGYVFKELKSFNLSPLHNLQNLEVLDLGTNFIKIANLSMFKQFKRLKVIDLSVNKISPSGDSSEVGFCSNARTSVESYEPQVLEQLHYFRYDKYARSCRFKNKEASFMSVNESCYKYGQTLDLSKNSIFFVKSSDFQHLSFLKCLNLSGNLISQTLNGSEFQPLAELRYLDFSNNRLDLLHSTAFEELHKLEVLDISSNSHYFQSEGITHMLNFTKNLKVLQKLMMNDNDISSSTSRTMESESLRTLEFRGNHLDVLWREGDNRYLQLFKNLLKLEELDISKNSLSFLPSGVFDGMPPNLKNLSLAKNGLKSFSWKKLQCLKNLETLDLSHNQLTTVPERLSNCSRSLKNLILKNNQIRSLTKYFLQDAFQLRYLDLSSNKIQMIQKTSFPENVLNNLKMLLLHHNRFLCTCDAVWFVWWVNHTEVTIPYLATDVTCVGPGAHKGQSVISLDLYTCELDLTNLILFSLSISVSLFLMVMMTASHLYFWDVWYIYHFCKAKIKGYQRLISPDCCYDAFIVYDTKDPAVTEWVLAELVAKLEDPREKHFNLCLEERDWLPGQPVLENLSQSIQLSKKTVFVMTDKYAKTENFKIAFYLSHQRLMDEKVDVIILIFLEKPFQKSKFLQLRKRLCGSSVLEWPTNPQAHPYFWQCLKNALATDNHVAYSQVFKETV
Procedure, shortened: as §1

[3] = hTLR8 HEK-Blue cells, TLR8 ligand 10 µM, 20 hours, SEAP by Quanti-blue, class symbols, read-out: HEK-Blue hTLR8 IC50
[4] = hTLR7 HEK-Blue cells, TLR7 ligand Gardiquimod 10 µM, 20 hours, SEAP by Quanti-blue, class symbols, read-out: HEK-Blue hTLR7 IC50

| Compound | IC50 [1, 3] [µM] | IC50 [2, 4] [µM] | also measured |
| --- | --- | --- | --- |
| C[C@@H]1CN(c2ccc(C#N)n3ncc(F)c23)Cc2c3c(nn21)CN(CCC#N)[C@@H](C)C3 [Example I-129, 4-((4R,9S)-8-(2-cyanoethyl)-4,9-dimethyl-3,4,7,8,9,10-hexahydropyridine[3',4':3,4]pyrazole[1,5-a]pyrazine-2 (1 H)-yl)-3-fluoropyrazole [1,5-a] pyridine-7-nitrile] | – | – | IC50 ([1]; HEK-Blue hTLR8 IC50 (µM)): < 0.1 µM; IC50 ([2]; HEK-Blue hTLR7 IC50 (µM)): < 0.05 µM |
| C[C@@H]1CN(c2ccc(C#N)n3ncc(F)c23)Cc2c3c(nn21)CC(N)CC3 (single isomer, unassigned) [Example I-20b] | < 0.1 | < 0.05 | – |
| C[C@@H]1CN(c2ccc(C#N)n3ncc(F)c23)Cc2c3c(nn21)CCC(C)(N)C3 (single isomer, unassigned) [Example I-80b] | > 0.1 | > 0.05 | – |
| C[C@@H]1CN(c2ccc(C#N)n3ncc(F)c23)Cc2c3c(nn21)CN(CC(N)=O)[C@@H](C)C3 [Example I-99, 2-((4R,9S)-2-(7-cyanide-3-fluoropyridox and [1,5-a]pyridox-4-base)-4,9-dimethyl-1,2,3,4,9, 10-hydropyridox [3', 4': 3, 4]pyridoz and [1, 5]pyridoxine-8 (7H)-Base) acetylamine] | > 0.1 | < 0.05 | – |
| CC1Cc2c(nn3c2CN(c2ccc(C#N)n4ncc(F)c24)C[C@H]3C)C(C)N1 (single isomer, unassigned) [Example I-88a] | < 0.1 | < 0.05 | – |
| C[C@@H]1CN(c2ccc(C#N)n3ncc(F)c23)Cc2c3c(nn21)CN(Cc1ccn[nH]1)[C@@H](C)C3 [Example I-134, 4-((4R,9S)-8-((1H-pyrazol-5-yl)methyl)-4,9-dimethyl-3,4,7,8,9,10-hexahydropyrido[3',4':3,4]pyrazolo[1,5-a]pyrazin-2(1H)-yl)-3-fluoropyrazolo[1,5-a]pyridine-7-carbonitrile] | – | – | IC50 ([1]; read-out: HEK-Blue hTLR8 IC50): < 0.1 µM; IC50 ([2]; read-out: HEK-Blue hTLR7 IC50): < 0.05 µM |
| C[C@@H]1CN(c2ccc(C#N)n3ncc(F)c23)Cc2c3c(nn21)CN(S(=O)(=O)CCN(C)C)[C@@H](C)C3 [Example I-118] | < 0.1 | < 0.05 | – |
| C[C@@H]1CN(c2ccc(C#N)n3ncc(F)c23)Cc2c3c(nn21)CNC(Cc1ccn[nH]1)C3 (stereo partly drawn) [Example I-79, 4-((4R)-9-((1H-pyrazol-5-yl)methyl)-4-methyl-3,4,7,8,9,10-hexahydropyrido[3',4':3,4]pyrazolo[1,5-a]pyrazin-2(1H)-yl)-3-fluoropyrazolo[1,5-a]pyridine-7-carbonitrile] | < 0.1 | < 0.05 | – |
| C[C@@H]1CN(c2ccc(C#N)n3ncc(F)c23)Cc2c3c(nn21)CC(C)(N)CC3 (single isomer, unassigned) [Example I-71a] | < 0.1 | < 0.05 | – |
| 4-((4R,9S)-8-(D-prolyl)-4,9-dimethyl-3,4,7,8,9,10-hexahydropyrido [3',4':3,4] pyrazolo [1,5-a]pyrazin-2(1H)-yl)-3-fluoropyrazolo[1,5-a]pyridine-7-carbonitrile [Example I-120] | < 0.1 | > 0.05 | – |

The next lines start with results.

| IC50 [1, 3] [µM] | IC50 [2, 4] [µM] | Compound | also measured |
| --- | --- | --- | --- |
| > 0.1 | < 0.05 | C[C@@H]1CN(c2ccc(C#N)n3ncc(F)c23)Cc2c3c(nn21)CN(CC(=O)N1CC(F)(F)C1)[C@@H](C)C3 [Example I-140, 4-((4R,9S)-8-(2-(3,3-difluoroazetidin-1-yl)-2-oxoethyl)-4,9-dimethyl-3,4,7,8,9,10-hexahydropyrido[3',4':3,4]pyrazolo[1,5-a]pyrazin-2(1H)-yl)-3-fluoropyrazolo[1,5-a]pyridine-7-carbonitrile] | – |
| > 0.1 | < 0.05 | CC1Cc2c(nn3c2CN(c2ccc(C#N)n4ncc(F)c24)C[C@H]3C)C(C)N1 (single isomer, unassigned) [Example I-88b] | – |
| > 0.1 | > 0.05 | CC(C(N)=O)N1Cc2nn3c(c2C[C@@H]1C)CN(c1ccc(C#N)n2ncc(F)c12)C[C@H]3C (stereo partly drawn) [Example I-156, 2-((4R,9S)-2-(7-cyano-3-fluoropyrazolo[1,5-a]pyridin-4-yl)-4,9-dimethyl-1,2,3,4,9,10-hexahydropyrido[3',4':3,4]pyrazolo[1,5-a]pyrazin-8(7H)-yl)propanamide] | – |
| > 0.1 | < 0.05 | C[C@@H]1CN(c2ccc(C#N)n3ncc(F)c23)Cc2c3c(nn21)CN([C@@H]1CCNC1=O)[C@@H](C)C3 [Example I-155, 4-((4R,9S)-4,9-dimethyl-8-((R)-2-oxopyrrolidin-3-yl)-3,4,7,8,9,10-hexahydropyrido[3',4':3,4]pyrazolo[1,5-a]pyrazin-2(1H)-yl)-3-fluoropyrazolo[1,5-a]pyridine-7-carbonitrile] | – |
| < 0.1 | < 0.05 | C[C@@H]1CN(c2ccc(C#N)n3ncc(F)c23)Cc2c3c(nn21)CN(C[C@@H](O)CO)[C@@H](C)C3 [Example I-158, 4-((4R,9S)-8-((R)-2,3-dihydroxypropyl)-4,9-dimethyl-3,4,7,8,9,10-hexahydropyrido[3',4':3,4]pyrazolo[1,5-a]pyrazin-2(1H)-yl)-3-fluoropyrazolo[1,5-a]pyridine-7-carbonitrile] | – |
| > 0.1 | > 0.05 | C[C@@H]1CN(c2ccc(C#N)n3ncc(F)c23)Cc2c3c(nn21)CN([C@H]1CCNC1=O)[C@@H](C)C3 [Example I-157, 4-((4R,9S)-4,9-dimethyl-8-((S)-2-oxopyrrolidin-3-yl)-3,4,7,8,9,10-hexahydropyrido[3',4':3,4]pyrazolo[1,5-a]pyrazin-2(1H)-yl)-3-fluoropyrazolo[1,5-a]pyridine-7-carbonitrile] | – |
| < 0.1 | > 0.05 | C[C@@H]1CN(c2ccc(C#N)n3ncc(F)c23)Cc2c3c(nn21)CN(CC12CC(C(N)=O)(C1)C2)[C@@H](C)C3 [Example I-193, 3-(((4R,9S)-2-(7-cyano-3-fluoropyrazolo [1,5-a]pyridin-4-yl)-4,9-dimethyl-1,2,3,4,9,10-hexahydropyrido[3',4':3,4]pyrazolo[1,5-a]pyrazin-8(7H)-yl)methyl)bicyclo[1.1.1] pentane-1-carboxamide] | – |
| > 0.1 | < 0.05 | C[C@@H]1CN(c2ccc(C#N)n3ncc(F)c23)Cc2c3c(nn21)CN(CC(=O)N1CCCC1)[C@@H](C)C3 [Example I-151, 4-((4R,9S)-4,9-dimethyl-8-(2-oxo-2-(pyrrolidin-1-yl)ethyl)-3,4,7,8,9,10-hexahydropyrido[3',4':3,4]pyrazolo[1,5-a]pyrazin-2(1H)-yl)-3-fluoropyrazolo[1,5-a]pyridine-7-carbonitrile] | – |
